# System: pre-cultured PBMCs (NSP12-specific T cells)
# Assay: IFN-γ ELISpot with single 15-mer peptides after 11–13 days in vitro peptide-pool T-cell expansion
# Format: cell-based, human
# Conditions: for peptide-specific response, donor HH-N12-18, post COVID-19 / peptide-specific response, donor HH-N12-18, pre COVID-19 / peptide-specific response, donor HH-N12-34, post COVID-19 / peptide-specific response, donor HH-N12-34, pre COVID-19 / peptide-specific response, donor HH-N12-35, post COVID-19 / peptide-specific response, donor HH-N12-35, pre COVID-19 / peptide-specific response, donor HH-N12-36, post COVID-19 / peptide-specific response, donor HH-N12-36, pre COVID-19 / peptide-specific response, donor HH-N12-37, post COVID-19 / peptide-specific response, donor HH-N12-37, pre COVID-19: single NSP12 15-mer peptides
# [1] = donor HH-N12-18, sample post COVID-19
# [2] = donor HH-N12-18, sample pre COVID-19
# [3] = donor HH-N12-34, sample post COVID-19
# [4] = donor HH-N12-34, sample pre COVID-19
# [5] = donor HH-N12-35, sample post COVID-19
# [6] = donor HH-N12-35, sample pre COVID-19
# [7] = donor HH-N12-36, sample post COVID-19
# [8] = donor HH-N12-36, sample pre COVID-19
# [9] = donor HH-N12-37, sample post COVID-19
# [10] = donor HH-N12-37, sample pre COVID-19
substance,measurement,setting,value
EDDNLIDSYFVVKRH [compound 13],"peptide-specific response, donor HH-N12-18, post COVID-19",[1],0
same,"peptide-specific response, donor HH-N12-18, pre COVID-19",[2],0
same,"peptide-specific response, donor HH-N12-34, post COVID-19",[3],0
same,"peptide-specific response, donor HH-N12-34, pre COVID-19",[4],0
same,"peptide-specific response, donor HH-N12-35, post COVID-19",[5],0
same,"peptide-specific response, donor HH-N12-35, pre COVID-19",[6],0
same,"peptide-specific response, donor HH-N12-36, post COVID-19",[7],0
same,"peptide-specific response, donor HH-N12-36, pre COVID-19",[8],0
same,"peptide-specific response, donor HH-N12-37, post COVID-19",[9],0
same,"peptide-specific response, donor HH-N12-37, pre COVID-19",[10],0
LKYDFTEERLKLFDR [compound 55],"peptide-specific response, donor HH-N12-18, post COVID-19",[1],0
same,"peptide-specific response, donor HH-N12-18, pre COVID-19",[2],0
same,"peptide-specific response, donor HH-N12-34, post COVID-19",[3],0
same,"peptide-specific response, donor HH-N12-34, pre COVID-19",[4],0
same,"peptide-specific response, donor HH-N12-35, post COVID-19",[5],0
same,"peptide-specific response, donor HH-N12-35, pre COVID-19",[6],0
same,"peptide-specific response, donor HH-N12-36, post COVID-19",[7],0
same,"peptide-specific response, donor HH-N12-36, pre COVID-19",[8],0
same,"peptide-specific response, donor HH-N12-37, post COVID-19",[9],0
same,"peptide-specific response, donor HH-N12-37, pre COVID-19",[10],0
"Peptide 110: 15-mer peptide of SARS-CoV-2 NSP12, aa 546-560","peptide-specific response, donor HH-N12-18, post COVID-19",[1],0
same,"peptide-specific response, donor HH-N12-18, pre COVID-19",[2],0
same,"peptide-specific response, donor HH-N12-34, post COVID-19",[3],0.023
same,"peptide-specific response, donor HH-N12-34, pre COVID-19",[4],0
same,"peptide-specific response, donor HH-N12-35, post COVID-19",[5],0
same,"peptide-specific response, donor HH-N12-35, pre COVID-19",[6],0
same,"peptide-specific response, donor HH-N12-36, post COVID-19",[7],0
same,"peptide-specific response, donor HH-N12-36, pre COVID-19",[8],0
same,"peptide-specific response, donor HH-N12-37, post COVID-19",[9],0
same,"peptide-specific response, donor HH-N12-37, pre COVID-19",[10],0
FFKFRIDGDMVPHIS [compound 21],"peptide-specific response, donor HH-N12-18, post COVID-19",[1],0
same,"peptide-specific response, donor HH-N12-18, pre COVID-19",[2],0
same,"peptide-specific response, donor HH-N12-34, post COVID-19",[3],0
same,"peptide-specific response, donor HH-N12-34, pre COVID-19",[4],0
same,"peptide-specific response, donor HH-N12-35, post COVID-19",[5],0
same,"peptide-specific response, donor HH-N12-35, pre COVID-19",[6],0
same,"peptide-specific response, donor HH-N12-36, post COVID-19",[7],0
same,"peptide-specific response, donor HH-N12-36, pre COVID-19",[8],0
same,"peptide-specific response, donor HH-N12-37, post COVID-19",[9],0
same,"peptide-specific response, donor HH-N12-37, pre COVID-19",[10],0
VVKRHTFSNYQHEET [compound 15],"peptide-specific response, donor HH-N12-18, post COVID-19",[1],0
same,"peptide-specific response, donor HH-N12-18, pre COVID-19",[2],0
same,"peptide-specific response, donor HH-N12-34, post COVID-19",[3],0
same,"peptide-specific response, donor HH-N12-34, pre COVID-19",[4],0
same,"peptide-specific response, donor HH-N12-35, post COVID-19",[5],0
same,"peptide-specific response, donor HH-N12-35, pre COVID-19",[6],0
same,"peptide-specific response, donor HH-N12-36, post COVID-19",[7],0
same,"peptide-specific response, donor HH-N12-36, pre COVID-19",[8],0
same,"peptide-specific response, donor HH-N12-37, post COVID-19",[9],0
same,"peptide-specific response, donor HH-N12-37, pre COVID-19",[10],0
LTKPYIKWDLLKYDF [compound 53],"peptide-specific response, donor HH-N12-18, post COVID-19",[1],0.021
same,"peptide-specific response, donor HH-N12-18, pre COVID-19",[2],0.02
same,"peptide-specific response, donor HH-N12-34, post COVID-19",[3],0
same,"peptide-specific response, donor HH-N12-34, pre COVID-19",[4],0
same,"peptide-specific response, donor HH-N12-35, post COVID-19",[5],0
same,"peptide-specific response, donor HH-N12-35, pre COVID-19",[6],0
same,"peptide-specific response, donor HH-N12-36, post COVID-19",[7],0
same,"peptide-specific response, donor HH-N12-36, pre COVID-19",[8],0
same,"peptide-specific response, donor HH-N12-37, post COVID-19",[9],0
same,"peptide-specific response, donor HH-N12-37, pre COVID-19",[10],0
DAVVCFNSTYASQGL [compound 153],"peptide-specific T-cell response, donor HH-N12-18, post COVID-19","donor HH-N12-18, sample post COVID-19, single NSP12 15-mer peptide, 0 = no response",0
same,"peptide-specific T-cell response, donor HH-N12-18, pre COVID-19","donor HH-N12-18, sample pre COVID-19, single NSP12 15-mer peptide, 0 = no response",0
same,"peptide-specific T-cell response, donor HH-N12-34, post COVID-19","donor HH-N12-34, sample post COVID-19, single NSP12 15-mer peptide, 0 = no response",0
same,"peptide-specific T-cell response, donor HH-N12-34, pre COVID-19","donor HH-N12-34, sample pre COVID-19, single NSP12 15-mer peptide, 0 = no response",0
same,"peptide-specific T-cell response, donor HH-N12-35, post COVID-19","donor HH-N12-35, sample post COVID-19, single NSP12 15-mer peptide, 0 = no response",0
same,"peptide-specific T-cell response, donor HH-N12-35, pre COVID-19","donor HH-N12-35, sample pre COVID-19, single NSP12 15-mer peptide, 0 = no response",0
same,"peptide-specific T-cell response, donor HH-N12-36, post COVID-19","donor HH-N12-36, sample post COVID-19, single NSP12 15-mer peptide, 0 = no response",0
same,"peptide-specific T-cell response, donor HH-N12-36, pre COVID-19","donor HH-N12-36, sample pre COVID-19, single NSP12 15-mer peptide, 0 = no response",0
same,"peptide-specific T-cell response, donor HH-N12-37, post COVID-19","donor HH-N12-37, sample post COVID-19, single NSP12 15-mer peptide, 0 = no response",0
same,"peptide-specific T-cell response, donor HH-N12-37, pre COVID-19","donor HH-N12-37, sample pre COVID-19, single NSP12 15-mer peptide, 0 = no response",0
TNCCRFQEKDEDDNL [compound 11],"peptide-specific response, donor HH-N12-18, post COVID-19",[1],0
same,"peptide-specific response, donor HH-N12-18, pre COVID-19",[2],0.035
same,"peptide-specific response, donor HH-N12-34, post COVID-19",[3],0
same,"peptide-specific response, donor HH-N12-34, pre COVID-19",[4],0
same,"peptide-specific response, donor HH-N12-35, post COVID-19",[5],0
same,"peptide-specific response, donor HH-N12-35, pre COVID-19",[6],0
same,"peptide-specific response, donor HH-N12-36, post COVID-19",[7],0
same,"peptide-specific response, donor HH-N12-36, pre COVID-19",[8],0
same,"peptide-specific response, donor HH-N12-37, post COVID-19",[9],0
same,"peptide-specific response, donor HH-N12-37, pre COVID-19",[10],0
DIYNDKVAGFAKFLK [compound 8],"peptide-specific response, donor HH-N12-18, post COVID-19",[1],0
same,"peptide-specific response, donor HH-N12-18, pre COVID-19",[2],0
same,"peptide-specific response, donor HH-N12-34, post COVID-19",[3],0
same,"peptide-specific response, donor HH-N12-34, pre COVID-19",[4],0
same,"peptide-specific response, donor HH-N12-35, post COVID-19",[5],0
same,"peptide-specific response, donor HH-N12-35, pre COVID-19",[6],0
same,"peptide-specific response, donor HH-N12-36, post COVID-19",[7],0
same,"peptide-specific response, donor HH-N12-36, pre COVID-19",[8],0
same,"peptide-specific response, donor HH-N12-37, post COVID-19",[9],0
same,"peptide-specific response, donor HH-N12-37, pre COVID-19",[10],0
SADAQSFLNRVCGVS [compound 1],"peptide-specific response, donor HH-N12-18, post COVID-19",[1],0
same,"peptide-specific response, donor HH-N12-18, pre COVID-19",[2],0
same,"peptide-specific response, donor HH-N12-34, post COVID-19",[3],0
same,"peptide-specific response, donor HH-N12-34, pre COVID-19",[4],0
same,"peptide-specific response, donor HH-N12-35, post COVID-19",[5],0
same,"peptide-specific response, donor HH-N12-35, pre COVID-19",[6],0
same,"peptide-specific response, donor HH-N12-36, post COVID-19",[7],0.037
same,"peptide-specific response, donor HH-N12-36, pre COVID-19",[8],0
same,"peptide-specific response, donor HH-N12-37, post COVID-19",[9],0
same,"peptide-specific response, donor HH-N12-37, pre COVID-19",[10],0
SFLNRVCGVSAARLT [compound 2],"peptide-specific response, donor HH-N12-18, post COVID-19",[1],0
same,"peptide-specific response, donor HH-N12-18, pre COVID-19",[2],0
same,"peptide-specific response, donor HH-N12-34, post COVID-19",[3],0
same,"peptide-specific response, donor HH-N12-34, pre COVID-19",[4],0
same,"peptide-specific response, donor HH-N12-35, post COVID-19",[5],0
same,"peptide-specific response, donor HH-N12-35, pre COVID-19",[6],0
same,"peptide-specific response, donor HH-N12-36, post COVID-19",[7],0
same,"peptide-specific response, donor HH-N12-36, pre COVID-19",[8],0
same,"peptide-specific response, donor HH-N12-37, post COVID-19",[9],0
same,"peptide-specific response, donor HH-N12-37, pre COVID-19",[10],0

# Source: article PMC10196118, “Evidence for broad cross-reactivity of the SARS-CoV-2 NSP12-directed CD4^+ T-cell response with pre-primed responses directed against common cold coronaviruses” (Frontiers in Immunology, 2023)
